Measurements: patent US20240352066A1, “ANTIMICROBIAL COMPOUNDS AND THE METHOD OF USE” (priority 2021, published 2024)
In brackets after ≈: the same amount, converted by molar mass. Where a SMILES comes first, the peptide text is derived from it. [ ]: non-standard residue; d: D form. N(tridecyl)Gly = CCCCCCCCCCCCCNCC(=O)O; N(4-F-Bzl)Gly = O=C(O)CNCc1ccc(F)cc1; Gly(N-2-aminoethyl) = NCCNCC(=O)O; Nspe = C[C@H](NCC(=O)O)c1ccccc1; Nlys = NCCCCNCC(=O)O

Columns and labels:
[1] = tested on: human red blood cells (hRBC); experiment: Hemolytic activity against human red blood cells; assay type: cell-based; conditions: Example 2; same donor sample of hRBCs
Experimental: Hemolytic activity was determined using single donor human red blood cells (hRBC). hRBCs were washed with PBS and centrifuged (1000 RPM; 10 minutes) three times, resuspended in PBS and aliquoted (100 μL) in 96 well plates. 2-fold serial dilutions of 10× peptoid final concentrations in PBS were prepared and added to wells in triplicate. PBS was used as a vehicle control and 1% Triton X-100 as a positive control. Plates were incubated for 1 hour (37° C.; 5% CO2) then centrifuged (1000 RPM; 10 minutes) and supernatant was diluted 1:20 into PBS in a new 96-well plate. Plates were read on a SpectraMax M5 plate reader (Abs. 405 nm). Percent hemolysis was determined by the following equation: […]
GraFit was used to determine concentrations at 50% hemolytic activity (HC50) and the Hill coefficient (H). Hemolytic activity at 10% (HC10) was then determined by the following equation: […]
The hemolytic activity of select peptoids was determined as done previously (Green et al. ACS medicinal chemistry letters 12 9, 1470-1477 (2021); Middleton et al. Bioorganic & medicinal chemistry letters 28 22, 3514-3519 (2018)). Selected peptoids were prepared in 2-fold serial dilutions in PBS at the desired concentrations. Human red blood cells (hRBCs, 9 mL) were centrifuged at 1000 rpm for 10 minutes, and the supernatant was removed and discarded. A 10 mL aliquot of PBS was used to resuspend the hRBCs which were centrifuged again at 1000 rpm for 10 minutes. This PBS wash was completed two more times for a total of three washes. A 9 mL aliquot of PBS was added to the hRBCs, and 100 μL of cell solution was added to individual wells of a 96-well plate. Peptoid solutions (11.1 μL) were added to the appropriate wells in triplicate. A vehicle control of PBS and positive control of 1% Triton X-100 were added to wells in triplicate.
The plate was incubated at 37° C. for 1 hour and centrifuged at 1000 rpm for 10 minutes. For each well, 5 μL of supernatant was transferred to 95 μL of PBS in a new 96-well plate. The absorbance at 405 nm was measured using a SpectraMax M5 Plate Reader, and the percent hemolysis was calculated as follows: […]

[2] = tested on: C. neoformans; assay type: cell-based, Cryptococcus neoformans; conditions: 72 h
Experimental: The minimum inhibitory concentration (MIC) of peptoids against fungal pathogens C. albicans and C. neoformans was determined following CLSI guidelines (CLSI. Reference method for broth dilution antifungal susceptibility testing of yeasts; approved standard-third edition; CLSI document M27-A3. (Clinical and Laboratory Standards Institute, 2008). […] This inoculant was diluted 1:100 into RPMI-MOPS and then further diluted 1:20 into RPMI-MOPS. 198 μL of inoculant was seeded into each well of a 96 well black-walled plate. 2-fold serial dilutions of 100× peptoid solutions were prepared in water and 2 μL of peptoid were added to each well in triplicate. […] MIC was defined as the lowest concentration of compound preventing fungal growth. This assay was repeated 3 times on separate days with each compound. […] The addition of 0.1 mL cell solution to 9.9 mL of RPMI-MOPS produced a 1:100 cell solution. After vortexing, 0.5 mL of the […] was added to 9.5 mL RPMI-MOPS to produce a 1:20 cell solution. 198 μL of the 1:20 solution was added to the wells of an opaque 96-well plate, apart from the wells designated for the medial control. […] Amphotericin B was used as a positive control, and sterile water was used for the vehicle control. The plates were incubated for 72 hours at 35° C. After incubation, the concentration of compound resulting in no visual growth was recorded as the MIC. All assays performed in biological triplicate on different days.

[3] = Mammalian cytotoxicity, MTT, HepG2; assay type: cell-based, human; conditions: human, HepG2 hepatocellular carcinoma cells
Experimental: Hepatocellular carcinoma (HepG2), mouse fibroblast (3T3), human lung (HPL1A), and human keratinocyte (HaCat) cells were cultured in Dulbecco modified eagle media (DMEM) containing 10% fetal bovine serum (FBS) and 1% penicillin, streptomycin, and glutamine (PSG) at 37° C. and 5% CO2. Cells were collected and adjusted to […] to 4×10^5 cells/mL in phenol-red free DMEM and plated (100 μL) 96 well plates. 2-fold serial dilutions of 10× peptoid (11.1 μL) were added to each well in triplicate. Water (vehicle) was used as a negative control. Plates were incubated at 37° C. in 5% CO2 for 72 hours. Thiazolyl blue tetrazolium bromide (MTT) was added to each well (5 mg/mL; 20 μL) and incubated for 3 hours. Media was removed, DMSO (100 μL) was added, and plates were incubated at 37° C. for 10 minutes. Plates were read on a SpectraMax M5 plate reader (Abs. 570 nm). The concentration of compound resulting in a 50% reduction in growth compared to control (toxicity dose 50%; TD50) was determined using GraFit. This procedure was repeated three times on separate days.
Cytotoxicity against HepG2 hepatocellular carcinoma cells was done as previously described (Green et al. ACS infectious diseases, (2022); Corson et al. ACS medicinal chemistry letters 7 12, 1139-1144 (2016)). HepG2 cells were maintained in culture in T-75 flasks using Dulbecco's Modified Eagle's Media (DMEM) with phenol red pH indicator and supplemented with 10% fetal bovine serum (FBS) and 1% penicillin, streptomycin, and glutamine (PSG). The cells were incubated at 37° C. and 5% CO2 in a humidified incubator until desired confluency was achieved. The media was removed from the flask, and the cells were washed 1× with 10 mL of phosphate-buffered saline (PBS; 11.8 mM phosphate, 140.4 mM NaCl; pH 7.4) which was then discarded. To remove the adhered cells from the flask, 2 mL of trypsin was added, and the cells were incubated for 10 minutes. To quench the trypsin, 8 mL of phenol red-free DMEM with 10% FBS and 1% PGS was added, and the cell solution was transferred to a 15 mL conical tube. After the cells were pelleted by centrifugation at 1000 rpm for 5 minutes, the supernatant was poured off and cells resuspended in the volume of phenol red-free media needed for the assay. Cell concentration was determined by counting with a hemocytometer, and the solution was diluted with media until a concentration of 1×10^5 cells/mL was achieved. A 100 μL aliquot of cell solution was added to each well of a 96-well plate, apart from the 3 wells used for a media control. Cells were incubated for 2-3 hours at 37° C. and 5% CO2 until cells were adherent.
Compound stocks of 20 mg/mL were used to prepare 2-fold serial dilutions of each compound in sterile water, giving final concentrations of 200, 100, 50, 25, 12.5, 6.25, 3.13 and 1.56 μg/mL. 11.1 μL of prepared compound solutions was added to the appropriate wells in triplicate. A negative vehicle control of sterile water, as well as the aforementioned media control, were used. The plates were incubated for 72 hours at 37° C. and 5% CO2. After incubation, 20 μL of 5 mg/mL 3-(4,5-dimethylthiazol-2-yl)-2,5-diphenyltetrazolium bromide (MTT) in water was added to each well. The plate was incubated for 3 hours at 37° C. and 5% CO2. Media was removed from each well using a sterile glass Pasteur pipette. 100 μL of DMSO was added to each well and incubated for 15 minutes at 37° C. Absorbance was read at 570 nm using a SpectraMax M5 Plate Reader. This MTT assay was performed in biological duplicate unless discrepant results were observed. If this was the case, the assay was performed in biological triplicate for further verification. The reported value is the average of biological replicates with standard deviation.

[4] = tested on: C. albicans; experiment: Peptoid library agar diffusion (PLAD) screening of library RGL8; assay type: cell-based, Candida albicans; conditions: RPMI-MOPS media
Source text: Antimicrobial peptoids of the present disclosure may have biological activity. Biological activity can be antimicrobial activity against a microbe, e.g., a fungal pathogen, a bacterial pathogen, or a combination thereof. A peptoid library agar diffusion (PLAD) assay may be used to identify peptoids that have antimicrobial activity (Fischer et al., ACS Comb. Sci. 18, 287-291 (2016); Corson et al., ACS Med. Chem. Lett. 7, 1139-1144 (2016); Turkett et al., ACS Comb. Sci. 18, 287-291 (2016)). The PLAD assay uses a PLAD chemical linker. […] Beads containing the PLAD linked peptoids are embedded in an agar medium where the agar medium is inoculated with the microbe of interest. The β-strand peptoid is released by a reducing reagent. The reducing agent cleaves a disulfide within the PLAD linker, allowing the β-strand peptoid to interact with microbes around the bead. If the released peptoid has antimicrobial activity, a zone of inhibited growth will be present. The α-strand peptoid remains attached to the bead during the screening process. […] The chemical cleavage of the α-strand peptoid is be accomplished at a C-terminal methionine of the PLAD linker using cyanogen bromide. […] The PLAD assay may be adapted to screen a peptoid of interest against different types of microbes of interest through slight modifications of the assay parameters. […]

Row | Compound | hRBC HC10 [1] [µg/mL] | C. neoformans MIC [2] [µg/mL] | CC50 at 72 h [3] [µg/mL] | PLAD screening result (zone of inhibited fungal growth) [4]
1 | CCCCCCCCCCCCCNCC(=O)N(CC(=O)N(CCCCN)CC(=O)N(CCN)CC(=O)N(CC(N)=O)[C@@H](C)c1ccccc1)[C@@H](C)c1ccccc1 [Compound 16] (H-[N(tridecyl)Gly][Nspe][Nlys][Gly(N-2-aminoethyl)][Nspe]-NH2) | 38 ± 11 | 1.56 to 3.13 | 167 ± 104 (≈ 207 µM) | –
2 | CCCCCCCCCCCCCNCC(=O)N(CC(=O)N(CCCCN)CC(=O)N(CCN)CC(=O)N(CC(N)=O)Cc1ccc(F)cc1)Cc1ccc(F)cc1 [Compound 17] (H-[N(tridecyl)Gly][N(4-F-Bzl)Gly][Nlys][Gly(N-2-aminoethyl)][N(4-F-Bzl)Gly]-NH2) | 59 ± 22 | 1.56 to 3.13 | 150 ± 7 (≈ 184 µM) | –
3 | Ntri-Ncha-Ncha-Ncha-Ncha | – | – | – | hit
